Literature values, collected in patent US6495170B1, “Method of increasing the presence of glutathione in cells” (N. V. Nutricia, priority 2000, dated 2002).
Values belong to the compound of their own block, whether it stands above or below them.

Legend:
[1] = ingested in large amounts
[2] = test system: γ-GCS; details: mediated by increased expression of γ-GCS mRNA and enzyme activity via AP-1
[3] = test system: mitochondrial GSH
[4] = 50 mg/kg p.o., mice treated with CCl4
[5] = 200 μg/day supplement for 2 months
[6] = mice, ethanol-induced liver peroxidation, pretreatment 200 mg/kg
[7] = test system: human neutrophils
[8] = test system: human erythrocytes
[9] = test system: glutathione-S-transferase
[10] = test system: isolated rat hepatocytes
[11] = test system: hepatic glutathione; details: induced by ethyl alcohol and paracetamol, rats
[12] = test system: hepatoblastoma Hep G2 cells

Compound: CC(=O)Nc1ccc(O)cc1 [Acetaminophen, acetaminophen]
hepatotoxicity [1]: severe hepatic necrosis

Compound: COc1cc(C(C)=O)ccc1O [Apocynin]
intracellular GSH synthesis [2]: enhances

Compound: O=NN(CCCl)C(=O)NCCCl [BCNU]
GSH reductase activity ([3]; CCl4-intoxicated mice): inhibited
effect on the protective activity of schisandrin B ([3]; CCl4-intoxicated mice): did not affect

Compound: COc1cc(C(=O)O[C@H]2[C@@H]3C=CO[C@@H](O[C@@H]4O[C@H](CO)[C@@H](O)[C@H](O)[C@H]4O)[C@@H]3[C@@]3(CO)O[C@@H]23)ccc1O [Picroside II]
hepatoprotective activity [4]: showed a hepatoprotective activity

Compound: [Se] [Selenium]
peroxidative parameters [5]: no effect
plasma selenium levels and glutathione peroxidase [5]: significantly improved

Compound: COc1cc2c(c(OC)c1OC)-c1c(cc3c(c1OC)OCO3)CC(C)C(C)C2 (stereo not shown) [schisandrin B]
GSH/GSSG ratio ([3]; 3 mmol/kg/day p.o.): elevating
GSSG level ([3]; 3 mmol/kg/day p.o.): decreased
mitochondrial GSH level ([3]; 3 mmol/kg/day p.o.): increased
mitochondrial GSH reductase activity ([3]; 3 mmol/kg/day p.o.): increased
GSH-peroxidase activity [6]: unaffected
dismutase and catalase activity [6]: increased

Compound: COc1cc2c(c(O)c1OC)-c1c(cc(OC)c(OC)c1OC)C[C@@H](C)[C@@H](C)C2 [schisanhenol]
GSH-peroxidase activity [6]: unaffected
dismutase and catalase activity [6]: increased

activity of superoxide dismutase and glutathione peroxidase [8]: increased
Compound: COc1cc(C2Oc3cc([C@H]4Oc5cc(O)cc(O)c5C(=O)[C@@H]4O)ccc3OC2CO)ccc1O (stereo partly shown) [silybin]
superoxide and hydrogen peroxide production [7]: inhibitory effects
inhibition of glutathione-S-transferase [9]: potent, non-toxic, inhibitor
GSH depletion by buthionine sulfoximide [10]: does not affect
GSH depletion induced by acetaminophen [10]: reduces
hepatic glutathione depletion [11]: protect

Compound: [Zn] [zinc, Zinc]
plasma zinc bound to RBP: < 2%
plasma zinc bound to albumin: 80-85%
plasma zinc bound to alpha2-macroglobulin: 15%

Compound: silymarin
acetaminophen-induced GSH depletion and cytotoxicity [12]: protects
